Results on 16 molecules are retold here after ChEMBL document CHEMBL1137421, “3-Benzimidazol-2-yl-1H-indazoles as potent c-ABL inhibitors” (Bioorg Med Chem Lett, 2006).

SMILES strings stand for the structures.

The target of assay [1] is Tyrosine-protein kinase ABL1 (Homo sapiens, UniProt P00519).
The target in assay [2] is Bcr/Abl fusion protein (Homo sapiens, UniProt P00519). It is filed as functional, cell-based, K562.
Chain of Bcr/Abl fusion protein (P00519 whole entry, the tested form may be a part): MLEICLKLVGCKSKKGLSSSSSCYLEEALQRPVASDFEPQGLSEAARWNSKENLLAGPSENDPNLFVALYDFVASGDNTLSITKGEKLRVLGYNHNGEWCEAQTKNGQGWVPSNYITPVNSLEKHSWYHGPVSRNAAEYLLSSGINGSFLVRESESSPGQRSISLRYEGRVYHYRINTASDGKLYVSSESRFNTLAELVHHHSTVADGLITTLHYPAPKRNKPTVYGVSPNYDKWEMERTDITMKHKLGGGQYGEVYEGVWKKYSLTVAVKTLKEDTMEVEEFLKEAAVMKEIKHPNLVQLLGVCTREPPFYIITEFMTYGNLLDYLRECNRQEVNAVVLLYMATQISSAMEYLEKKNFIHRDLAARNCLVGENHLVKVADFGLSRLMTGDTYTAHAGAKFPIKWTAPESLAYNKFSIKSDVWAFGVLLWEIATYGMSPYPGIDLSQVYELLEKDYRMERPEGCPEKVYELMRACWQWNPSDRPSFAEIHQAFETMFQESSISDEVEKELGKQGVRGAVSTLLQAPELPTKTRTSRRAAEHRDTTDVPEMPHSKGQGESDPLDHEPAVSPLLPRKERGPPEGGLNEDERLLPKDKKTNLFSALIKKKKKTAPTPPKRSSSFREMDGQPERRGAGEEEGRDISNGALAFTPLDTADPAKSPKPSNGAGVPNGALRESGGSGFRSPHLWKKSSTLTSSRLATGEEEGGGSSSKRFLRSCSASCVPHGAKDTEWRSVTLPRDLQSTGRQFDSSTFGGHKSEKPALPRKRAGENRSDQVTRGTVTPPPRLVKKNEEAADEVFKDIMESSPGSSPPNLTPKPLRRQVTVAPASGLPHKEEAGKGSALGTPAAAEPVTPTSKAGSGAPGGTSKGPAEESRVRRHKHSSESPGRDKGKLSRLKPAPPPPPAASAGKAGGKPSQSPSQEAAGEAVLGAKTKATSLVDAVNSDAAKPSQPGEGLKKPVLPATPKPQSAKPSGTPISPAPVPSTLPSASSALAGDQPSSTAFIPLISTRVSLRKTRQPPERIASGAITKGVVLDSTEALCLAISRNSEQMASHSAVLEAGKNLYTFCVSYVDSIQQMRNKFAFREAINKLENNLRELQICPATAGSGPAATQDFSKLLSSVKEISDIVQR
Chain of Bcr/Abl fusion protein (P11274 whole entry, further chain, the tested form may be a part): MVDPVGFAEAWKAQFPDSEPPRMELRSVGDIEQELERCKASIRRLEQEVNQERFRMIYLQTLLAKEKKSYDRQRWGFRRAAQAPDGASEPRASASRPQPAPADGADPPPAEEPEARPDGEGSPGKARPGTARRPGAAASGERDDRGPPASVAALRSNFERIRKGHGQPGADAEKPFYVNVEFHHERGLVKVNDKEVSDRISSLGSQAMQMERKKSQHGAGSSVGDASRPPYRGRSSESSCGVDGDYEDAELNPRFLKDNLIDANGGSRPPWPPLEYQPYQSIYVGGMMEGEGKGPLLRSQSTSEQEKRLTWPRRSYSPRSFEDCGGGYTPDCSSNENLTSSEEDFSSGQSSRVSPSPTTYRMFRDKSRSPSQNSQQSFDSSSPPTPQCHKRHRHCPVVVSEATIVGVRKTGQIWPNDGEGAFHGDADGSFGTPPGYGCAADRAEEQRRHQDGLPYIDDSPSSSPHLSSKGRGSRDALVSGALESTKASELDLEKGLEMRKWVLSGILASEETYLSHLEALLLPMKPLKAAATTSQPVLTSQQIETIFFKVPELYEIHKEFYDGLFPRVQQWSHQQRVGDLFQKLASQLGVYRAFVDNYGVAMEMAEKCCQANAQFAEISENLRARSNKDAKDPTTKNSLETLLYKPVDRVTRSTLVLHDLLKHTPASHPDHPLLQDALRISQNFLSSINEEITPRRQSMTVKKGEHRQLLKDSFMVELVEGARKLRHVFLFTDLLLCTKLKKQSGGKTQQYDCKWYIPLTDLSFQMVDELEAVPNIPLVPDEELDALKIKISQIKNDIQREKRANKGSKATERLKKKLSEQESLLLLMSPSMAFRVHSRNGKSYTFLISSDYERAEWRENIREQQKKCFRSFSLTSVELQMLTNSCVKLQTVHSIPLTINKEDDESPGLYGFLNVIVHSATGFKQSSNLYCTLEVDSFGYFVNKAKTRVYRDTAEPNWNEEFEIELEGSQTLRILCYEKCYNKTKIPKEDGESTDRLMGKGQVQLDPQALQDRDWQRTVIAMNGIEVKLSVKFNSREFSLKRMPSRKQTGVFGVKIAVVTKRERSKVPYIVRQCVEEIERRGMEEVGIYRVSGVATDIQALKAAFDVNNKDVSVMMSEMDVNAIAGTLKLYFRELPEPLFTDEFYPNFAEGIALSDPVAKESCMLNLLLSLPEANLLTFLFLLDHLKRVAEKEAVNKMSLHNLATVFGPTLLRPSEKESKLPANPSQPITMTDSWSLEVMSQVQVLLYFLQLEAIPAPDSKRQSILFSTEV

Chain of Tyrosine-protein kinase ABL1 (P00519 whole entry, the tested form may be a part): as the sequence (P00519 whole entry, the tested form may be a part) above

`COc1cc2[nH]nc(-c3nc4ccc(N5CCC(N6CCCCC6)CC5)cc4[nH]3)c2cc1OCc1ccccc1`: in assay [1], 3 nM corresponded to half-maximal inhibition (IC50).

For `O=C(Nc1ccc2[nH]nc(-c3nc4ccc(N5CCC(N6CCCCC6)CC5)cc4[nH]3)c2c1)c1ccco1`, the IC50 (in general, the concentration that gives 50% inhibition) in assay [1] worked out at 150 nM. Also, the concentration giving a half-maximal response (EC50) (in general, the midpoint of the concentration-response curve) in assay [2] stood at 560 nM. For the molecule `COc1ccc2[nH]nc(-c3nc4ccc(N5CCC(N6CCCCC6)CC5)cc4[nH]3)c2c1`, the IC50 in assay [1] turned out to be 230 nM.

`c1ccc(COc2ccc3c(-c4nc5ccc(N6CCC(N7CCCCC7)CC6)cc5[nH]4)n[nH]c3c2)cc1` yielded an IC50 in assay [1] of 200 nM. In assay [1], `c1csc(CNc2ccc3[nH]nc(-c4nc5cc(N6CCC(N7CCCCC7)CC6)ccc5[nH]4)c3c2)n1` came in with an IC50 of 10 nM. This molecule yielded an EC50 in assay [2] of 10 nM. As to `CC(C)(C)NC(=O)Nc1ccc2[nH]nc(-c3nc4ccc(N5CCC(N6CCCCC6)CC5)cc4[nH]3)c2c1`, in assay [1], the IC50 amounted to 30 nM. Also, the EC50 in assay [2] was 360 nM.

In assay [1], `COc1ccc(Oc2ccc3[nH]nc(-c4nc5cc(N6CCC(N7CCCCC7)CC6)ccc5[nH]4)c3c2)cc1` had a concentration for half-maximal inhibition (IC50) of 220 nM. The same measure, in the same setting: to `c1ccc(Oc2ccc3[nH]nc(-c4nc5ccc(N6CCC(N7CCCCC7)CC6)cc5[nH]4)c3c2)cc1` belongs 30 nM; to `c1ccc2c(-c3nc4ccc(N5CCC(N6CCCCC6)CC5)cc4[nH]3)n[nH]c2c1`, 600 nM. `c1ccc(CNc2ccc3[nH]nc(-c4nc5ccc(N6CCC(N7CCCCC7)CC6)cc5[nH]4)c3c2)cc1` yielded an IC50 in assay [1] of 130 nM. The molecule also displayed an EC50 in assay [2] of 1800 nM. The corresponding values for `c1ccc(COc2ccc3[nH]nc(-c4nc5ccc(N6CCC(N7CCCCC7)CC6)cc5[nH]4)c3c2)cc1` are 60 nM and 970 nM. The corresponding values for `c1ccc(CN2CCC(Nc3ccc4[nH]nc(-c5nc6cc(N7CCC(N8CCCCC8)CC7)ccc6[nH]5)c4c3)CC2)cc1` are 7 nM and 70 nM. `c1coc(CNc2ccc3[nH]nc(-c4nc5cc(N6CCC(N7CCCCC7)CC6)ccc5[nH]4)c3c2)c1` returned an IC50 in assay [1] of 60 nM. Further, the EC50 in assay [2] worked out at 30 nM. For `COc1cccc(Oc2ccc3[nH]nc(-c4nc5cc(N6CCC(N7CCCCC7)CC6)ccc5[nH]4)c3c2)c1`, the IC50 in assay [1] turned out to be 60 nM.

In assay [1], `c1ccc(COc2cc3[nH]nc(-c4nc5cc(N6CCC(N7CCCCC7)CC6)ccc5[nH]4)c3cc2OCc2ccccc2)cc1` gave an IC50 of 900 nM. The same measure, in the same setting: as for `COc1ccccc1Oc1ccc2[nH]nc(-c3nc4cc(N5CCC(N6CCCCC6)CC5)ccc4[nH]3)c2c1`, the figure is 20 nM.
